Reference: the supplement of paper PMC10307832

What was measured:
Assay in all cases: relative viability (nuclei count vs DMSO), 5 days (fraction); higher = more cells survive
EHT 1864 + OSI-027 = compound: C1COCCN1CC2=CC(=O)C(=CO2)OCCCCCSC3=C4C=CC(=CC4=NC=C3)C(F)(F)F [EHT 1864] + COc1cccc2cc(-c3nc([C@H]4CC[C@H](C(=O)O)CC4)n4ncnc(N)c34)[nH]c12 [OSI-027] (partner 0.5 µM)
How it was run: (§1)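 Relative viability was taken as the ratio of nuclei in treated wells to nuclei in vehicle wells. Lung cancer cell lines in 1536-well plates received compounds by pin tool one day after seeding, either one drug alone or a fixed anchor-drug dose plus five library-drug doses (not always all listed) in √10 steps. Nuclei were counted on 4× images after 5 days of treatment, and values are medians of duplicate plates.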

EHT 1864 + Lapatinib = compound: C1COCCN1CC2=CC(=O)C(=CO2)OCCCCCSC3=C4C=CC(=CC4=NC=C3)C(F)(F)F [EHT 1864] + CS(=O)(=O)CCNCc1ccc(-c2ccc3ncnc(Nc4ccc(OCc5cccc(F)c5)c(Cl)c4)c3c2)o1 [Lapatinib] (partner 2 µM)
How it was run: as §1

EHT 1864 + Linsitinib = compound: C1COCCN1CC2=CC(=O)C(=CO2)OCCCCCSC3=C4C=CC(=CC4=NC=C3)C(F)(F)F [EHT 1864] + C[C@]1(O)C[C@@H](c2nc(-c3ccc4ccc(-c5ccccc5)nc4c3)c3c(N)nccn32)C1 [Linsitinib] (partner 1 µM)
How it was run: as §1

EHT 1864 + Alpelisib = compound: C1COCCN1CC2=CC(=O)C(=CO2)OCCCCCSC3=C4C=CC(=CC4=NC=C3)C(F)(F)F [EHT 1864] + Cc1nc(NC(=O)N2CCC[C@H]2C(N)=O)sc1-c1ccnc(C(C)(C)C(F)(F)F)c1 [Alpelisib] (partner 2 µM)
How it was run: as §1

Cell Line	relative viability (EHT 1864 + OSI-027; first compound 0.04 µM)	relative viability (EHT 1864 + OSI-027; first compound 0.1265 µM)	relative viability (EHT 1864 + OSI-027; first compound 0.4 µM)	relative viability (EHT 1864 + OSI-027; first compound 1.265 µM)	relative viability (EHT 1864 + OSI-027; first compound 4 µM)	relative viability (EHT 1864 + Lapatinib; first compound 0.04 µM)	relative viability (EHT 1864 + Lapatinib; first compound 0.1265 µM)	relative viability (EHT 1864 + Lapatinib; first compound 0.4 µM)	relative viability (EHT 1864 + Lapatinib; first compound 1.265 µM)	relative viability (EHT 1864 + Lapatinib; first compound 4 µM)	relative viability (EHT 1864 + Linsitinib; first compound 0.04 µM)	relative viability (EHT 1864 + Linsitinib; first compound 0.1265 µM)	relative viability (EHT 1864 + Linsitinib; first compound 0.4 µM)	relative viability (EHT 1864 + Linsitinib; first compound 1.265 µM)	relative viability (EHT 1864 + Linsitinib; first compound 4 µM)	relative viability (EHT 1864 + Alpelisib; first compound 0.04 µM)	relative viability (EHT 1864 + Alpelisib; first compound 0.1265 µM)	relative viability (EHT 1864 + Alpelisib; first compound 0.4 µM)	relative viability (EHT 1864 + Alpelisib; first compound 1.265 µM)	relative viability (EHT 1864 + Alpelisib; first compound 4 µM)
HCC-44	0.573	0.383	0.525	0.522	0.575	1.04	0.822	0.955	1.05	0.965	0.692	0.58	0.598	0.642	0.621	0.801	0.703	0.751	0.695	0.857
HCC-78	0.373	0.337	0.305	0.37	0.375	0.875	0.525	0.382	0.345	1.05	0.555	0.452	0.394	0.486	0.809	0.29	0.31	0.328	0.367	0.491
HCC-366	0.805	0.603	0.939	0.872	0.935	1.02	–	0.929	1.04	0.992	0.647	–	0.699	0.598	0.522	0.426	–	0.492	0.401	0.285
HCC-827	0.733	0.646	0.732	0.7	0.657	0.233	0.204	0.219	0.164	0.191	0.953	0.858	1.01	0.926	0.876	0.981	0.887	0.958	0.953	0.891
HOP-62	0.783	–	0.851	0.825	0.907	1.07	–	1.01	1.09	1.18	1.13	–	0.865	0.943	1.03	1.03	–	0.838	0.796	0.884
IA-LM	–	–	–	–	–	0.704	–	0.74	–	0.622	0.524	0.325	0.572	0.463	0.644	0.875	0.419	0.799	0.677	0.639
LC-2-ad	0.808	–	1	0.98	0.788	0.993	–	0.954	0.904	0.835	0.862	–	0.806	0.804	0.79	0.837	–	0.831	0.9	0.82
LCLC-97TM1	0.429	0.583	0.339	0.568	0.517	1.03	–	0.527	1.22	1.12	0.202	–	0.148	0.168	0.233	0.253	–	0.22	0.195	0.198
LCLC-103H	0.454	0.365	0.461	0.44	0.413	–	–	–	–	–	1.12	0.83	1.01	1.09	1.39	1.05	0.888	0.956	1.03	1.07
LK-2	0.243	0.154	0.227	0.188	0.187	1.05	0.797	0.911	1.03	0.881	0.543	0.527	0.538	0.623	0.724	1.19	0.972	1.07	1.14	0.499
LOU-NH91	0.721	0.572	0.768	0.777	0.66	0.769	0.746	0.802	0.81	0.797	0.975	0.875	1.06	1.1	0.767	0.739	0.7	0.793	0.736	0.624
LU99A	0.354	0.212	0.327	0.29	0.278	1.02	0.64	0.873	1.17	0.949	0.514	0.4	0.5	0.607	0.539	0.495	0.381	0.452	0.583	0.54
LXF-289	0.848	0.738	0.769	0.775	0.713	0.883	0.821	0.883	0.851	0.799	0.926	0.929	0.883	0.898	0.821	1.1	1	1	0.968	0.912
NCI-H441	0.685	0.511	0.414	0.581	0.734	–	–	–	–	–	0.517	0.574	0.503	0.461	0.561	0.73	0.644	0.532	0.779	0.729
NCI-H522	0.818	0.631	0.696	0.662	0.652	–	–	–	–	–	–	–	–	–	–	–	–	–	–	–
NCI-H1299	–	–	–	–	–	0.969	0.904	0.949	0.931	0.909	0.903	0.877	0.981	0.969	0.936	0.973	0.974	0.983	1.05	1.08
NCI-H1648	0.273	0.29	0.242	0.23	0.255	–	–	–	–	–	–	–	–	–	–	–	–	–	–	–
NCI-H1650	–	–	0.599	0.638	0.611	0.741	0.443	0.812	0.841	0.589	–	–	–	–	–	–	–	–	–	–
NCI-H1703	–	–	–	–	–	0.796	0.857	1.21	1.01	0.854	0.725	–	0.931	0.789	0.647	0.323	0.319	0.399	0.373	0.366
NCI-H2170	0.787	0.582	0.803	0.795	0.702	0.272	0.268	0.283	0.239	0.271	–	–	–	–	–	0.751	0.759	0.771	0.793	0.793
NCI-H2342	0.529	0.555	0.576	0.573	0.636	–	–	–	–	–	–	–	–	–	–	–	–	–	–	–
SW 900	0.555	–	0.548	0.583	0.483	–	–	–	–	–	–	–	–	–	–	–	–	–	–	–
